This is an account of results in patent US11970498B2, “CDK2 inhibitors” (BLUEPRINT MEDICINES CORPORATION, priority 2021, dated 2024).

Assay [1] addresses CDK2/Cyclin E (Homo sapiens, UniProt P24941). The assay is described as follows: CDK2/Cyclin E biochemical phosphorylation assay (Caliper mobility shift). To be noted: apparent IC50; 1.0 mM ATP or ATP Km; 1.25 nM enzyme; 25° C.; read-out: CDK2/cyclin E1 IC50. The method, boiled down: (§1)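 7.5 µM 5-FAM-QSPKKG-CONH2 peptide phosphorylated by CDK2/Cyclin E (1.25 nM) or GST-CDK1/Cyclin B1 (1.5 nM) at 1.0 mM ATP or ATP Km, in HEPES pH 7.5, MgCl2, Brij-35, DTT, 1% DMSO, 25 °C to 10–20% conversion. EDTA stop; Caliper mobility-shift readout; apparent IC50 from percent activity vs log concentration.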

Assay [2] concerns the target T1, CDK1/Cyclin B1, GST-tag (Homo sapiens, UniProt P06493).
T1 construct: GST
The assay is described as follows: CDK1/Cyclin B1 biochemical phosphorylation assay (Caliper mobility shift). To be noted: apparent IC50; 1.0 mM ATP or ATP Km; 1.5 nM enzyme; 25° C. The method, boiled down: as §1

pIC50: −log10 of the molar value. Where only a bound is given, the exact number is not on record here.

T1 sequence (P06493 whole entry): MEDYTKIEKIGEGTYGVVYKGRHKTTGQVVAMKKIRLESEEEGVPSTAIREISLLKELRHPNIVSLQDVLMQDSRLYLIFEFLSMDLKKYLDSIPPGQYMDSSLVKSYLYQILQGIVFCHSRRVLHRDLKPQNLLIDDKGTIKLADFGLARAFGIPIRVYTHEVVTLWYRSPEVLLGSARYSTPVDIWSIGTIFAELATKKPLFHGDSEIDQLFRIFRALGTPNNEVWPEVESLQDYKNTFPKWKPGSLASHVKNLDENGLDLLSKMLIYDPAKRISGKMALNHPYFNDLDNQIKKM
T1 sequence (P14635 whole entry partner): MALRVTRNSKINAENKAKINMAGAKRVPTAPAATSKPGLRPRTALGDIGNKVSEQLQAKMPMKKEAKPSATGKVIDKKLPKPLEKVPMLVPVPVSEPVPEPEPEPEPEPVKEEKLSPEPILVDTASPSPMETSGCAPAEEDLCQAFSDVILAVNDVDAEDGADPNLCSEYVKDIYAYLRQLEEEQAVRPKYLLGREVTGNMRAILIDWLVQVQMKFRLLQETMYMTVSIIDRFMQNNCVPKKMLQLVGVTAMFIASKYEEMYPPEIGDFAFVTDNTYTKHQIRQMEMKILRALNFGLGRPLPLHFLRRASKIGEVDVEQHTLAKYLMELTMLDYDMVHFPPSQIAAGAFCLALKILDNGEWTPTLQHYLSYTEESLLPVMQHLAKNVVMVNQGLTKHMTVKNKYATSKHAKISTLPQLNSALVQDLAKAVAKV

With `COc1cc(Nc2cnc3cnn(C[C@H]4CCOC4)c3n2)n[nH]1` [Example 70, (R)-N-(5-methoxy-1H-pyrazol-3-yl)-1-((tetrahydrofuran-3-yl)methyl)-1H-pyrazolo[3,4-b]pyrazin-6-amine], the pIC50 is at least 8.00 in assay [1] and 6.30 to 7.00 in assay [2].

Turning to `C[C@@H](c1cncs1)n1ncc2ncc(Nc3cc(OC(F)F)[nH]n3)nc21` [Example 58, (S)-N-(5-(difluoromethoxy)-1H-pyrazol-3-yl)-1-(1-(thiazol-5-yl)ethyl)-1H-pyrazolo[3,4-b]pyrazin-6-amine], the pIC50 in assay [1] is at least 8.00; in assay [2] it was at most 6.30.

Consider `OC[C@@H](c1cccnc1)n1ncc2ncc(Nc3cc(OC(F)F)[nH]n3)nc21` [Example 204, (R)-2-(6-((5-(difluoromethoxy)-1H-pyrazol-3-yl)amino)-1H-pyrazolo[3,4-b]pyrazin-1-yl)-2-(pyridin-3-yl)ethan-1-ol], for which the values for the pIC50 in assay [1] and in assay [2] were 7.52 to 7.70 and at most 6.30, respectively.

For the molecule `COc1cc(Nc2cnc3cnn([C@@H](C)C4CC4)c3n2)n[nH]1` [Example 68, (S)-1-(1-cyclopropylethyl)-N-(5-methoxy-1H-pyrazol-3-yl)-1H-pyrazolo[3,4-b]pyrazin-6-amine], the pIC50 is 7.70 to 8.00 in assay [1] and at most 6.30 in assay [2].

As to `N#C[C@@]1(Cn2ncc3ncc(Nc4cc(OC(F)F)[nH]n4)nc32)CCOC1` (single isomer, unassigned) [Example 169, (S)-3-((6-((5-(difluoromethoxy)-1H-pyrazol-3-yl)amino)-1H-pyrazolo[3,4-b]pyrazin-1-yl)methyl)tetrahydrofuran-3-carbonitrile or (R)-3-((6-((5-(difluoromethoxy)-1H-pyrazol-3-yl)amino)-1H-pyrazolo[3,4-b]pyrazin-1-yl)methyl)tetrahydrofuran-3-carbonitrile], the pIC50 is 7.52 to 7.70 in assay [1] and at most 6.30 in assay [2].

With `O[C@H]1CC[C@@H](n2ncc3ncc(Nc4cc(OC(F)F)[nH]n4)nc32)CC1` [Example 57, (1s,4s)-4-(6-((5-(difluoromethoxy)-1Hpyrazol-3-yl)amino)-1Hpyrazolo[3,4-b]pyrazin-1-yl)cyclohexan-1-ol], the pIC50 in assay [1] is 7.00 to 7.52; in assay [2] it was at most 6.30.

As to `FC(F)Oc1cc(Nc2cnc3cnn(C[C@H]4[C@@H]5COC[C@@H]54)c3n2)n[nH]1` [Example 81, 1-(((1R,5S,6s)-3-oxabicyclo[3.1.0]hexan-6-yl)methyl)-N-(5-(difluoromethoxy)-1H-pyrazol-3-yl)-1H-pyrazolo[3,4-b]pyrazin-6-amine], the results for the pIC50 in assay [1] and in assay [2] were at least 8.00 and at most 6.30, respectively.

`OC1(Cn2ncc3ncc(Nc4cc(OC(F)F)[nH]n4)nc32)CCC1` [Example 125, 1-((6-((5-(difluoromethoxy)-1H-pyrazol-3-yl)amino)-1H-pyrazolo[3,4-b]pyrazin-1-yl)methyl)cyclobutan-1-ol]: the pIC50 in assay [1] is 7.52 to 7.70; in assay [2], at most 6.30.

Turning to `C[C@@H](c1cccnc1F)n1nc(C#N)c2ncc(Nc3cc(OC(F)F)[nH]n3)nc21` [Example 63, (S)-6-((5-(difluoromethoxy)-1H-pyrazol-3-yl)amino)-1-(1-(2-fluoropyridin-3-yl)ethyl)-1H-pyrazolo[3,4-b]pyrazine-3-carbonitrile], the figures for the pIC50 in assay [1] and in assay [2] were at least 8.00 and 6.30 to 7.00, respectively.

Regarding `C[C@@H](O)c1nn([C@@H](C)C2CCOCC2)c2nc(Nc3cc(OC(F)F)[nH]n3)cnc12` (single isomer, unassigned) [Example 182, (S)-1-(6-((5-(difluoromethoxy)-1H-pyrazol-3-yl)amino)-1-((S)-1-(tetrahydro-2H-pyran-4-yl)ethyl)-1H-pyrazolo[3,4-b]pyrazin-3-yl)ethan-1-ol or (R)-1-(6-((5-(difluoromethoxy)-1H-pyrazol-3-yl)amino)-1-((S)-1-(tetrahydro-2H-pyran-4-yl)ethyl)-1H-pyrazolo[3,4-b]pyrazin-3-yl)ethan-1-ol], the pIC50 in assay [1] is at least 8.00; in assay [2], at most 6.30.

For `C[C@@H]([C@@H]1COCCO1)n1ncc2ncc(Nc3cc(OC(F)F)[nH]n3)nc21` (single isomer, unassigned) [Example 213], the pIC50 in assay [1] is 7.70 to 8.00; in assay [2] it was at most 6.30.

For `FC(F)Oc1cc(Nc2cnc3cnn(Cc4cnccn4)c3n2)n[nH]1` [Example 223, N-(5-(difluoromethoxy)-1H-pyrazol-3-yl)-1-(pyrazin-2-ylmethyl)-1H-pyrazolo[3,4-b]pyrazin-6-amine], the figures for the pIC50 in assay [1] and in assay [2] were 7.52 to 7.70 and at most 6.30, respectively.

With `COc1cc(Nc2cnc3cnn(C(C)c4cccnn4)c3n2)n[nH]1` (single isomer, unassigned) [Example 33, (R)—N-(5-methoxy-1H-pyrazol-3-yl)-1-(1-(pyridazin-3-yl)ethyl)-1H-pyrazolo[3,4-b]pyrazin-6-amine or (S)—N-(5-methoxy-1H-pyrazol-3-yl)-1-(1-(pyridazin-3-yl)ethyl)-1H-pyrazolo[3,4-b]pyrazin-6-amine], the pIC50 was at least 8.00 in assay [1] and 6.30 to 7.00 in assay [2].

For the molecule `COc1cc(Nc2cnc3cnn(C[C@H]4CCCOC4)c3n2)n[nH]1` [Example 140, (R)-N-(5-methoxy-1H-pyrazol-3-yl)-1-((tetrahydro-2H-pyran-3-yl)methyl)-1H-pyrazolo[3,4-b]pyrazin-6-amine], the figures for the pIC50 in assay [1] and in assay [2] were 7.70 to 8.00 and at most 6.30, respectively.

For `FC(F)Oc1cc(Nc2cnc3cnn([C@H](c4ccccc4)C4COC4)c3n2)n[nH]1` (single isomer, unassigned) [Example 162, (R)-N-(5-(difluoromethoxy)-1H-pyrazol-3-yl)-1-(oxetan-3-yl(phenyl)methyl)-1H-pyrazolo[3,4-b]pyrazin-6-amine or (S)-N-(5-(difluoromethoxy)-1H-pyrazol-3-yl)-1-(oxetan-3-yl(phenyl)methyl)-1H-pyrazolo[3,4-b]pyrazin-6-amine], the pIC50 in assay [1] is under 7.00; in assay [2] it was at most 6.30.

For `FC(F)Oc1cc(Nc2cnc3cnn(C[C@@H]4CC45CC5)c3n2)n[nH]1` (racemic) [Example 109, (R)-N-(5-(difluoromethoxy)-1H-pyrazol-3-yl)-1-(spiro[2.2]pentan-1-ylmethyl)-1H-pyrazolo[3,4-b]pyrazin-6-amine and (S)-N-(5-(difluoromethoxy)-1H-pyrazol-3-yl)-1-(spiro[2.2]pentan-1-ylmethyl)-1H-pyrazolo[3,4-b]pyrazin-6-amine], the pIC50 is at least 8.00 in assay [1] and 6.30 to 7.00 in assay [2].

On to `CC1(Cn2ncc3ncc(Nc4cc(OC(F)F)[nH]n4)nc32)CCOCC1` [Example 110, N-(5-(difluoromethoxy)-1H-pyrazol-3-yl)-1-((4-methyltetrahydro-2H-pyran-4-yl)methyl)-1H-pyrazolo[3,4-b]pyrazin-6-amine], for which the values for the pIC50 in assay [1] and in assay [2] were at least 8.00 and 6.30 to 7.00, respectively.

For `Cc1ccncc1Cn1ncc2ncc(Nc3cc(OC(F)F)[nH]n3)nc21` [Example 96, N-(5-(difluoromethoxy)-1H-pyrazol-3-yl)-1-((4-methylpyridin-3-yl)methyl)-1H-pyrazolo[3,4-b]pyrazin-6-amine], the results for the pIC50 in assay [1] and in assay [2] were 7.00 to 7.52 and at most 6.30, respectively.
